# Tests used:
# [1] = in vivo, po; cited from earlier work
# [2] = dog, in vivo, po
# Description: Blood samples were taken at 0.25(tablet only), 0.5, 1, 2, 4, 6, 8, 10, 12 and 24 hours postmedication. The plasma concentration of (5α,17α)-1'-(methylsulfonyl)-1'-H-pregn-20-yno[3,2-c]pyrazol-17-ol was measured from each sample. The data were analyzed to determine the mean maximum concentration of (5α,17α)-1'-(methylsulfonyl)-1'-H-pregn-20-yno[3,2-c]pyrazol-17-ol reached (mean Cmax) and the mean area under the (5α,17α)-1'-(methylsulfonyl)-1'H-pregn-20-yno[3,2-c]pyrazol-17-ol concentration-time curve for the twenty-four hour period (mean AUC0-24).
Compound,human bioavailability compared with conventional starch-lactose-talc-magnesium stearate dry powder capsule formulations [1],Mean Cmax [2],Mean AUC0-24 ([2]; 24 h)
"C#C[C@]1(O)CC[C@H]2[C@@H]3CCC4=Cc5oncc5C[C@]4(C)[C@H]3CC[C@@]21C [Compound A, 17a-pregna-2,4-diene-20-yno[2,3-d]isoxazol-17-ol]",Improved human bioavailability,–,–
"(5α,17α)-1'-(methylsulfonyl)-1'H-pregn-20-yno[3,2-c]pyrazol-17-ol [Comparative Example]",–,0.23 (0.11) μg./ml.,1.70 (1.64) μg.-hr./ml.

# From patent publication US5340589A, “Low solubility drug-coated bead compositions” (Sterling Winthrop Inc., priority 1993, dated 1994)
